What was measured:
Assay type in all cases: cell-based
RORα = biological target: T1, RORα (Homo sapiens, UniProt P35398); test: Gal4-RORα hybrid reporter gene assay in HEK293T cells; conditions: for IC50: Gal4 hybrid reporter gene assay, inverse agonism, mean±S.E.M., n≥4
T1 construct: uniprot ID P35398-2, aa 266- 523; expressed in transfected cells; host or cells: HEK293T
T1 sequence (P35398 266-523): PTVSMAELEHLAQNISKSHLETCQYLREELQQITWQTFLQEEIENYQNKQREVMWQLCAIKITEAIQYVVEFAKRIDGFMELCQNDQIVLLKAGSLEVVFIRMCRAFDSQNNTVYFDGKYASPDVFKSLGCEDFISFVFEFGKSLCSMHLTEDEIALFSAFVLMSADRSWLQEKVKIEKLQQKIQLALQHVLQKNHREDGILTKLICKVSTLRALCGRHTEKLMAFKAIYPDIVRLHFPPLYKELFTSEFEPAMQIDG
Excerpt: (§1) In vitro characterization of compounds 1, 2, and 3 in Gal4‐ROR hybrid reporter gene assays confirmed inverse RORγ agonism with micromolar to sub‐micromolar IC50 values (Table 1).
(§2) In vitro Characterization Methods
(§3) Hybrid reporter gene assays. The hybrid receptor plasmids pFA-CMV-hRORα-LBD (NR1F1, isoform 1, uniprot ID P35398-2, aa 266-523), pFA-CMV-hRORβ-LBD (NR1F2, isoform 2, uniprot ID Q92753-2, aa 216-470), and pFA-CMV-hRORγ-LBD (NR1F3, isoform 1, uniprot ID P51449, aa 263-518) encode the Gal4-DBD fused to the hinge region and ligand binding domain of the canonical isoform of the respective human nuclear receptor and were cloned as described previously[13,14] using cDNA from SourceBioScience (Nottingham, UK). The Gal4-responsive firefly luciferase reporter pFR-Luc (Stratagene, La Jolla, CA, USA) and pRL-SV40 (Promega, Madison, WI, USA; internal control) were used together with either pFA-CMV-NR-LBD clone for the hybrid reporter gene assays.
(§4) HEK293T cells (German Collection of Microorganisms and Cell Culture GmbH, DSMZ) were cultured in Dulbecco’s modified Eagle’s medium (DMEM), high glucose supplemented with 10 % fetal calf serum (FCS), sodium pyruvate (1 mM), penicillin (100 U/mL), and streptomycin (100 μg/mL) at 37 °C and 5 % CO2 and seeded in 96-well plates (3×10^4 cells/well) twenty-four hours prior to transfection. Before transfection, medium was changed to Opti -MEM without supplements and transient transfection with above mentioned plasmids (pFR-Luc, pRL-SV40 and one pFA-CMV-NR-LBD clone) was carried out with Lipofectamine LTX reagent (Invitrogen) according to the manufacturer’s protocol. Five hours after transfection, medium was changed to Opti -MEM supplemented with penicillin (100 U/mL) a nd streptomycin (100 μg/mL) additionally containing 0.1 % DMSO and the respective test compound or 0.1 % DMSO alone as untreated control. Each concentration was tested in duplicates and each experiment was repeated independently at least two times. Followi ng overnight (14−16 h) incubation, cells were assayed for luciferase activity using the Dual - Glo Luciferase Assay System (Promega) according to the manufacturer’s protocol. Luminescence was measured with a Tecan Spark luminometer (Tecan Deutschland GmbH, G ermany). Normalization of transfection efficiency and cell growth was done by division of firefly luciferase data by Renilla luciferase data and multiplying the value by 1000 resulting in relative light units (RLU). Fold reporter repression was obtained by dividing the mean RLU of a test compound at a respective concentration by the mean RLU of the 0.1% DMSO control. […]

RORγ = biological target: T2, RORγ (Homo sapiens, UniProt P51449); test: Gal4-RORγ hybrid reporter gene assay in HEK293T cells; conditions: for IC50: Gal4 hybrid reporter gene assay, inverse agonism, mean±S.E.M., n≥4; for potency on RORγ compared to the related RORα and RORβ isoforms (subtype preference): Gal4 hybrid reporter gene assays
T2 construct: uniprot ID P51449, aa 263-518; expressed in transfected cells; host or cells: HEK293T
T2 sequence (P51449 263-518): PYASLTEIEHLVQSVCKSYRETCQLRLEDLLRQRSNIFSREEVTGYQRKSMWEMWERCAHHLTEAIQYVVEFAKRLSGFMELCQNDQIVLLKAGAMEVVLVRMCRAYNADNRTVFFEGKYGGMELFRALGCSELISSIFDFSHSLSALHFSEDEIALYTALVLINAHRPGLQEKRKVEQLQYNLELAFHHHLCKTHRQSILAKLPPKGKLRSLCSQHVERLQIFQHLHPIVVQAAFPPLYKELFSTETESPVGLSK
Excerpt: as §1, §2, §3
HEK293T cells (German Collection of Microorganisms and Cell Culture GmbH, DSMZ) were cultured in Dulbecco’s modified Eagle’s medium (DMEM), high glucose supplemented with 10 % fetal calf serum (FCS), sodium pyruvate (1 mM), penicillin (100 U/mL), and streptomycin (100 μg/mL) at 37 °C and 5 % CO2 and seeded in 96-well plates (3×10^4 cells/well) twenty-four hours prior to transfection. Before transfection, medium was changed to Opti -MEM without supplements and transient transfection with above mentioned plasmids (pFR-Luc, pRL-SV40 and one pFA-CMV-NR-LBD clone) was carried out with Lipofectamine LTX reagent (Invitrogen) according to the manufacturer’s protocol. Five hours after transfection, medium was changed to Opti -MEM supplemented with penicillin (100 U/mL) a nd streptomycin (100 μg/mL) additionally containing 0.1 % DMSO and the respective test compound or 0.1 % DMSO alone as untreated control. Each concentration was tested in duplicates and each experiment was repeated independently at least two times. Followi ng overnight (14−16 h) incubation, cells were assayed for luciferase activity using the Dual - Glo Luciferase Assay System (Promega) according to the manufacturer’s protocol. Luminescence was measured with a Tecan Spark luminometer (Tecan Deutschland GmbH, G ermany). Normalization of transfection efficiency and cell growth was done by division of firefly luciferase data by Renilla luciferase data and multiplying the value by 1000 resulting in relative light units (RLU). Fold reporter repression was obtained by dividing the mean RLU of a test compound at a respective concentration by the mean RLU of the 0.1% DMSO control. IC 50 values were obtained by plotting fold reporter activation vs test compound concentrations and fitting the resulting sigmoidal curve with a four-parameter logistic regression in SigmaPlot 12.5 (Systat Software GmbH, Erkrath, Germany). The Gal4 - ROR hybrid assays were validated with the reference inverse agonists SR1001 and SR1078 , which yielded IC50 values in agreement […]
(1 picture or pasted object on this page, not shown here)

RORβ = biological target: T3, RORβ (Homo sapiens, UniProt Q92753); test: Gal4-RORβ hybrid reporter gene assay in HEK293T cells; conditions: for IC50: Gal4 hybrid reporter gene assay, inverse agonism, mean±S.E.M., n≥4
T3 construct: uniprot ID Q92753-2, aa 216-470; expressed in transfected cells; host or cells: HEK293T
T3 sequence (Q92753 216-470): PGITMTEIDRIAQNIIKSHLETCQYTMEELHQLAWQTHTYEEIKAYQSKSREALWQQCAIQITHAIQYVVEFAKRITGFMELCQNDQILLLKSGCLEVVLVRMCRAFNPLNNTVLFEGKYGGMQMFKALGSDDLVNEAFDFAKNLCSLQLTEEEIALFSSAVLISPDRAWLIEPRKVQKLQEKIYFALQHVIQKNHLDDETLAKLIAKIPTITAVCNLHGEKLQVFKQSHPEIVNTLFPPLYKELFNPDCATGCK
Excerpt: as §1, §2, §3, §4

[1] = precise IC50 could not be determined due to cytotoxicity

Compound | IC50 (RORα) | activity on RORα (in words) (RORα; [1]) | IC50 (RORγ) | IC50 (RORβ) | activity on RORβ (in words) (RORβ; [1]) | potency on RORγ compared to the related RORα and RORβ isoforms (subtype preference) (RORγ)
O=C1CC2(CCCC2)CC(=O)N1CCCCN1CCN(c2ccc(Cl)cc2)CC1 [Compound 1] | > 10 µM | additionally active | 4.6 ± 0.5 µM | > 10 µM | additionally active | 
O=S(=O)(Cc1ccccc1)N(Cc1ccc(N2CCC(C(F)(F)F)CC2)cc1F)C1CCC1 [Compound 2] | 23 ± 3 µM |  | 0.37 ± 0.05 µM | 22 ± 1 µM |  | more than tenfold higher potency
O=S(=O)(Cc1ccccc1)N(Cc1ccc(N2CCC(C(F)(F)F)CC2)cc1)C1CCC1 [Compound 3] | 10 ± 1 µM |  | 0.68 ± 0.07 µM | 7.6 ± 0.5 µM |  | more than tenfold higher potency

From publication PMC8457062, “Beam Search for Automated Design and Scoring of Novel ROR Ligands with Machine Intelligence” (Angewandte Chemie (International Ed. in English), 2021)
